The NIST ThermoML archive (doi:10.1016/j.jct.2017.03.006)
Numbers after ± are expanded uncertainties.

Assay: xn = mol fraction of the nth substance listed
Conditions: Liquid; for mass density: 293.15 K, Vibrating tube method; for viscosity: Concentric cylinders viscometry

Cc1ccc(C)c(C)c1 [1,2,4-trimethylbenzene] + CCC(C)O
mass density [kg/m3]
Conditions	x2 = 0	x2 = 0.1	x2 = 0.1989	x2 = 0.3011	x2 = 0.4002	x2 = 0.5001	x2 = 0.5997	x2 = 0.6999	x2 = 0.7999	x2 = 0.9
100 kPa	–	–	863.6 ± 0.7	857.4 ± 0.7	851.4 ± 0.7	845 ± 0.7	838.2 ± 0.7	831.1 ± 0.7	823.6 ± 0.7	815.3 ± 0.7
1000 kPa	875.7 ± 0.7	869.9 ± 0.7	864.2 ± 0.7	858 ± 0.7	852 ± 0.7	845.6 ± 0.7	838.9 ± 0.7	831.8 ± 0.7	824.3 ± 0.7	816 ± 0.7
2000 kPa	876.3 ± 0.7	870.6 ± 0.7	864.9 ± 0.7	858.8 ± 0.7	852.8 ± 0.7	846.4 ± 0.7	839.7 ± 0.7	832.6 ± 0.7	825 ± 0.7	816.8 ± 0.7
5000 kPa	878.2 ± 0.7	872.7 ± 0.7	867 ± 0.7	860.9 ± 0.7	854.9 ± 0.7	848.5 ± 0.7	841.9 ± 0.7	834.8 ± 0.7	827.3 ± 0.7	819.1 ± 0.7
10000 kPa	881.4 ± 0.7	875.9 ± 0.7	870.3 ± 0.7	864.2 ± 0.7	858.3 ± 0.7	852 ± 0.7	845.4 ± 0.7	838.3 ± 0.7	830.9 ± 0.7	822.7 ± 0.7
15000 kPa	884.4 ± 0.7	879 ± 0.7	873.4 ± 0.7	867.5 ± 0.7	861.6 ± 0.7	855.3 ± 0.7	848.7 ± 0.7	841.7 ± 0.7	834.3 ± 0.7	826.1 ± 0.7
20000 kPa	887.3 ± 0.7	882.1 ± 0.7	876.5 ± 0.7	870.6 ± 0.7	864.7 ± 0.7	858.5 ± 0.7	851.9 ± 0.7	845 ± 0.7	837.6 ± 0.7	829.5 ± 0.7
30000 kPa	892.9 ± 0.7	887.9 ± 0.7	882.4 ± 0.7	876.6 ± 0.7	870.8 ± 0.7	864.6 ± 0.7	858.1 ± 0.7	851.2 ± 0.7	843.9 ± 0.8	835.8 ± 0.8
40000 kPa	898.2 ± 0.7	893.4 ± 0.7	888 ± 0.7	882.2 ± 0.7	876.5 ± 0.7	870.4 ± 0.8	863.9 ± 0.8	857 ± 0.8	849.7 ± 0.8	841.7 ± 0.8
50000 kPa	903.2 ± 0.7	898.6 ± 0.7	893.2 ± 0.8	887.5 ± 0.8	881.8 ± 0.8	875.7 ± 0.8	869.3 ± 0.8	862.5 ± 0.8	855.2 ± 0.8	847.2 ± 0.8
60000 kPa	908 ± 0.8	903.6 ± 0.8	898.3 ± 0.8	892.5 ± 0.8	886.9 ± 0.8	880.9 ± 0.8	874.4 ± 0.8	867.7 ± 0.8	860.4 ± 0.8	852.5 ± 0.8
70000 kPa	912.6 ± 0.8	908.3 ± 0.8	903 ± 0.8	897.3 ± 0.8	891.8 ± 0.8	885.8 ± 0.8	879.4 ± 0.8	872.7 ± 0.8	865.5 ± 0.8	857.5 ± 0.8
80000 kPa	916.9 ± 0.8	912.9 ± 0.8	907.6 ± 0.8	902 ± 0.8	896.4 ± 0.8	890.4 ± 0.8	884 ± 0.8	877.3 ± 0.8	870.1 ± 0.8	862.3 ± 0.9
90000 kPa	921.1 ± 0.8	917.2 ± 0.8	912 ± 0.8	906.4 ± 0.8	900.9 ± 0.8	894.9 ± 0.8	888.6 ± 0.8	881.9 ± 0.8	874.8 ± 0.9	866.8 ± 0.9
100000 kPa	925.1 ± 0.8	921.4 ± 0.8	916.2 ± 0.8	910.6 ± 0.8	905.1 ± 0.8	899.2 ± 0.8	892.9 ± 0.8	886.2 ± 0.9	879 ± 0.9	871.2 ± 0.9
110000 kPa	929 ± 0.8	925.4 ± 0.8	920.3 ± 0.8	914.8 ± 0.8	909.2 ± 0.8	903.4 ± 0.8	897.1 ± 0.9	890.4 ± 0.9	883.3 ± 0.9	875.4 ± 0.9
120000 kPa	932.8 ± 0.8	929.3 ± 0.8	924.2 ± 0.8	918.7 ± 0.8	913.2 ± 0.8	907.4 ± 0.8	901.2 ± 0.9	894.4 ± 0.9	887.3 ± 0.9	879.5 ± 0.9
130000 kPa	936.4 ± 0.8	933.1 ± 0.8	928 ± 0.8	922.6 ± 0.8	917.1 ± 0.8	911.3 ± 0.9	905.1 ± 0.9	898.4 ± 0.9	891.2 ± 0.9	883.4 ± 0.9
140000 kPa	939.9 ± 0.8	936.7 ± 0.8	931.6 ± 0.8	926 ± 0.8	920.5 ± 0.8	914.9 ± 0.9	908.7 ± 0.9	901.9 ± 0.9	894.7 ± 0.9	887 ± 1

viscosity [mPa·s], 100 kPa
Conditions	x2 = 0	x2 = 0.1001	x2 = 0.2261	x2 = 0.3	x2 = 0.3966	x2 = 0.5298	x2 = 0.6001	x2 = 0.7001	x2 = 0.7997	x2 = 0.9001
303.15 K	0.779 ± 0.017	0.774 ± 0.017	0.786 ± 0.017	0.802 ± 0.017	0.858 ± 0.018	0.923 ± 0.02	1.01 ± 0.021	1.16 ± 0.024	1.4 ± 0.029	1.8 ± 0.037
313.15 K	0.692 ± 0.015	0.687 ± 0.015	0.689 ± 0.015	0.698 ± 0.015	0.74 ± 0.016	–	–	–	–	–
